Reference: patent US4900749A, “Isoprenoidamine compounds useful as antiulcer agents” (Shionogi & Co., Ltd., priority 1985, dated 1990)

Tests used:
lesion formation = experiment: inhibition of 60% ethanol/150 mM hydrochloric acid-induced stomach lesion formation (Experiment 1); assay type: in vivo, Male SD rats; conditions: Rattus norvegicus, 1 h
Description: Male SD rats, weighing 200-300 g, were allowed to fast for 24 hours. One milliliter of 60% ethanol (v/v) in 150 mM hydrochloric acid was given orally 1 hour after oral or intraperitoneal administration of test compound as a suspension in 5% gum arabic, and the animals were killed with an overdose of ether 1 hour later. The stomachs were removed and opened along the greater curvature. The total length (mm) of each lesion was measured for use as the lesion index and inhibition (%) of lesion formation by the test compound was calculated by comparing with that of 5% gum arabic as control.
Geranylgeranylacetone (hereinafter abbreviated as GGA) was employed as a reference compound.

acid secretion = experiment: inhibition of histamine-stimulated gastric acid secretion in perfused stomach (Experiment 2); assay type: in vivo, Male Jcl SD rats; conditions: intraduodenal, during 90 minutes after administration, histamine dihydrochloride 3 mg/kg/hr
Description: Male Jcl SD rats (body weight; about 300 g) were fast for 24 hours and anesthetized by urethane. Cannula was put into the trachea and into a jugular vein. After midline laparotomy, perfusion cannulae were introduced into the stomach through the pylorus and the esophagus. The animal was perfused with saline (1 ml/min) at 37° C. through the esophagus cannula. Perfusate was collected every 15 minutes through the pylorus cannula and titrated with 0.01N sodium hydroxide to measure acid secretion. Histamine dihydrochloride (3 mg/kg/hr) was infused through the jugular vein cannula and the test compound was administered intraduodenaly 90 minutes later. Acid output in perfusate every 15 minutes was measured in the same manner as described above. The rate of maximum inhibition (%) of acid secretion was calculated during 90 minutes after administration of the test compound compared with the acid output just before administration of the test compound.

[1] = ip, Intraperitoneal administration

SMILES | inhibition in vivo at 20 mg/kg (lesion formation; Oral administration) [%] | inhibition in vivo at 20 mg/kg (lesion formation; [1]) [%] | other results
CC(C)=CCCC(C)=CCCC(C)=CCCC(C)=CCNC(=O)c1ccc[nH]1 [Compound I-26] | 9.6 | – | inhibition in vivo at 10 mg/kg (lesion formation; [1]): 59.1%
CC(C)=CCCC(C)=CCCC(C)=CCCC(C)=CCNC(=O)c1ccccc1 [Compound I-9] | – | 64.2 | –
CC(C)=CCCC(C)=CCCC(C)=CCCC(C)=CCNC(=O)Cc1cccnc1 [Compound I-30] | 85.1 | 93.6 | Inhibition (%): rate of maximum inhibition of acid secretion (acid secretion; 20 mg/kg): 57.4%; Inhibition (%): rate of maximum inhibition of acid secretion (acid secretion; 50 mg/kg): 99.5%
CC(C)=CCCC(C)=CCCC(C)=CCCC(C)=CCNC(=O)c1cccs1 [Compound I-24] | 11.8 | – | inhibition in vivo at 10 mg/kg (lesion formation; [1]): 62.1%
CC(C)=CCCC(C)=CCCC(C)=CCCC(C)=CCNC(=O)CC#N [Compound I-36] | 56.4 | 72.2 | –
CC(C)=CCCC(C)=CCCC(C)=CCCC(C)=CCNC(=O)N1CCOCC1 [Compound I-55, 1-[N-(3,7,11,15-Tetramethyl-2,6,10,14-hexadecatetraenyl)carbamoyl]morpholine] | – | – | inhibition in vivo at 10 mg/kg (lesion formation; Oral administration): 22.2%; inhibition in vivo at 10 mg/kg (lesion formation; [1]): 76.7%; Inhibition (%): rate of maximum inhibition of acid secretion (acid secretion; 20 mg/kg): 51.1%; Inhibition (%): rate of maximum inhibition of acid secretion (acid secretion; 50 mg/kg): 77.7%
CC(C)=CCCC(C)=CCCC(C)=CCCC(C)=CCNC(=O)c1ccccn1 [Compound I-20] | 24.2 | 83.1 | –
CC(C)=CCCC(C)=CCCC(C)=CCCC(C)=CCNC(=O)N1CCCCC1 [Compound I-56] | – | 79.4 | –
CC(C)=CCCC(C)=CCCC(C)=CCCC(C)=CCNC(=O)Cc1ccccc1 [Compound I-13] | – | 65.3 | –
CC(C)=CCCC(C)=CCCC(C)=CCCC(C)=CCNC(=O)NCCCN1CCOCC1 [Compound I-65] | – | 35.5 | –
CC(C)=CCCC(C)=CCCC(C)=CCCC(C)=CCNC(=O)Nc1ccccc1 [Compound I-82] | – | 62.7 | –
CC(=O)CCC=C(C)CCC=C(C)CCC=C(C)CCC=C(C)C [GGA, Geranylgeranylacetone, reference compound] | 37.7 | – | inhibition in vivo at 50 mg/kg (lesion formation; ip, Intraperitoneal administration, 50 mg/kg): 81%
CC(C)=CCCC(C)=CCCC(C)=CCCC(C)=CCNC(=O)N1CCN(C)CC1 [Compound I-59] | – | 53.3 | –
CC(=O)NCC=C(C)CCC=C(C)CCC=C(C)CCC=C(C)C [Compound I-2, N-(3,7,11,15-Tetramethyl-2,6,10,14-hexadecatetraenyl)acetamide] | 46.6 | – | inhibition in vivo at 10 mg/kg (lesion formation; [1]): 71.7%
CC(C)=CCCC(C)=CCCC(C)=CCCC(C)=CCNC(=O)c1cnccn1 [Compound I-28] | – | 80.4 | –
CC(C)=CCCC(C)=CCCC(C)=CCCC(C)=CCNC(=O)NCc1cccnc1 [Compound I-71] | 44.2 | 68.5 | –
CC(C)=CCCC(C)=CCCC(C)=CCCC(C)=CCNC(N)=O [Compound I-57] | – | 84 | inhibition in vivo at 10 mg/kg (lesion formation; Oral administration): 36.2%
CC(C)=CCCC(C)=CCCC(C)=CCCC(C)=CCNC(=O)N(C)C [Compound I-81, N,N-Dimethyl-N'-(3,7,11,15-tetramethyl-2,6,10,14-hexadecatetraenyl)urea] | 23.9 | 78.2 | –
COCC(=O)NCC=C(C)CCC=C(C)CCC=C(C)CCC=C(C)C [Compound I-4] | 29.3 | 88.4 | –
CC(C)=CCCC(C)=CCCC(C)=CCCC(C)=CCNC(=O)Cc1c[nH]cn1 [Compound I-31] | – | 91 | –
CC(C)=CCCC(C)=CCCC(C)=CCCC(C)=CCNC(=O)N1CCN(Cc2ccc3c(c2)OCO3)CC1 [Compound I-62] | – | 46.1 | –
CC(C)=CCCC(C)=CCCC(C)=CCCC(C)=CCNC(=O)c1cccnc1 [Compound I-21] | 64.5 | 99 | –
CC(C)=CCCC(C)=CCCC(C)=CCCC(C)=CCNC(=O)c1ccc([N+](=O)[O-])cc1 [Compound I-18] | – | 75.1 | –
CC(C)=CCCC(C)=CCCC(C)=CCCC(C)=CCNC(=O)c1ccco1 [Compound I-12] | – | – | inhibition in vivo at 10 mg/kg (lesion formation; [1]): 39.4%
CC(C)=CCCC(C)=CCCC(C)=CCCC(C)=CCNC(=O)c1ccncc1 [Compound I-22, N-(3,7,11,15-Tetramethyl-2,6,10,14 hexadecatetraenyl)isonicotinamide] | 86.1 | 85.6 | –
CC(C)=CCCC(C)=CCCC(C)=CCCC(C)=CCNC(=O)Cc1ccccn1 [Compound I-29] | – | – | inhibition in vivo at 10 mg/kg (lesion formation; [1]): 64.3%
